The target of assay [1] is T1, human muscarinic M3 receptor (Homo sapiens (Human), UniProt P20309). The assay is described as follows: Binding assay on human muscarinic M3 receptor ([3H]-methyl scopolamine displacement). To be noted: membranes overexpressing human M3 receptor, Ki from IC50 by Cheng-Prusoff, read-out: Binding Affinity to M3 Receptor, Ki. In a few lines:
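Displacement of [3H]-methyl scopolamine from membranes overexpressing human M3, in Tris-HCl, 25 °C, 120 min; filter-bound radioactivity counted. Nonspecific binding with 5 μM atropine; Ki from IC50 via Cheng-Prusoff.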

For assay [2], the target named is T1, human muscarinic M3 receptor. Briefly: Antagonism assay on human muscarinic M3 receptor (carbachol-induced intracellular calcium, FLIPR Calcium 5, transfected Cos-7 cells). Format: cell-based. To be noted: functional inhibitory constant; carbachol-induced intracellular calcium in Cos-7 cells transfected with human M3 receptor. On the procedure:
[Experimental Example 2] Antagonism Assay on Human Muscarinic M3 Receptor
The antagonism assay for various compounds of the present invention was conducted on antagonism to human M3 receptor in Cos-7 cells that was transfected with plasmid coding human muscarinic M3 receptor. Test compounds in various concentrations were pre-treated to the cells for 3 minutes, and then the changes of intracellular calcium were measured after treating the same with carbachol (i.e. muscarinic receptor agonist). The FLIPR® Calcium 5 assay (Molecular Devices) and Flex3 device (Molecular Devices) were used to measure concentration of calcium. Amounts of calcium before and after carbachol treatment were set as 0% and 100% respectively. Inhibition rates (%) by the compounds for increase in intracellular calcium by carbachol were calculated. The antagonistic potency of the test compounds on human muscarinic M3 receptor was calculated as the functional inhibitory constant (Ki), which can be calculated from concentration (IC50) of compound inhibiting 50% of activity of carbachol according to Cheng and Prusoff equation.
On the technique in general: Calcium assays in cells follow changes in intracellular calcium, usually with a dye or a luminescent sensor.

Each structure is given as a SMILES string.

T1 sequence (P20309 whole entry): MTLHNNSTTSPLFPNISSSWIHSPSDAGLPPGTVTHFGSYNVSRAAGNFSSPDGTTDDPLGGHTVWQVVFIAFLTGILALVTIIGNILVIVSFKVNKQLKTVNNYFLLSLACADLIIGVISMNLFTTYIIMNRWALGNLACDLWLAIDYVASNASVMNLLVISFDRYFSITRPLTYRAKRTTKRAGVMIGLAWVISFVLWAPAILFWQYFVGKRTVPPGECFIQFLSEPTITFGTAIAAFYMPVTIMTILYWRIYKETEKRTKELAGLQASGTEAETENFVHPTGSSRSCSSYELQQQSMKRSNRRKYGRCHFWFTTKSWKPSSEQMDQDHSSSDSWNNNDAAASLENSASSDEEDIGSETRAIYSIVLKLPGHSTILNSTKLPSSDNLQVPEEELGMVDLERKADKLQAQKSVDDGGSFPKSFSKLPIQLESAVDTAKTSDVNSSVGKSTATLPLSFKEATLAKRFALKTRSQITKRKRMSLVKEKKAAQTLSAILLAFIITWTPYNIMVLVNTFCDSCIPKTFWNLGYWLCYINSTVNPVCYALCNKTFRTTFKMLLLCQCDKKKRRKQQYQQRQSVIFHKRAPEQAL

One may read the Ki as a measure of affinity in units of concentration, obtained from inhibition or displacement. As to `CN1CCCC1CCOC(=O)Nc1ccc(F)cc1-c1ccccc1` (centres unmarked) [Example 21, 2-(1-methylpyrrolidin-2-yl)ethyl(5-fluoro-[1,1′-biphenyl]-2-yl)carbamate], the results for the Ki in assay [1] and in assay [2] were 2.25 nM and 0.49 nM, respectively.
Regarding `CN1CCCC1CCOC(=O)Nc1ccccc1-c1ccc(F)c(Cl)c1` (centres unmarked) [Example 41, 2-(1-methylpyrrolidin-2-yl)ethyl(3′-chloro-4′-fluoro-[1,1′-biphenyl]-2-yl)carbamate], the inhibition constant (Ki) is 2.45 nM in assay [1] and 0.18 nM in assay [2].
Turning to `CN1CCCC1CCOC(=O)Nc1ccc(F)cc1-c1ccc(F)c(F)c1` (centres unmarked) [Example 42, 2-(1-methylpyrrolidin-2-yl)ethyl(3′,4′,5-trifluoro-[1,1′-biphenyl]-2-yl)carbamate], the inhibition constant (Ki) in assay [1] turned out to be 9.21 nM; in assay [2], 1.19 nM.
Regarding `CN1CCC[C@H]1COC(=O)Nc1ccccc1-c1cccc(N)c1` [Example 170, (S)-(1-methylpyrrolidin-2-yl)methyl(3′-amino-[1,1′-biphenyl]-2-yl)carbamate], the inhibitory constant (Ki) in assay [1] amounted to 9.23 nM.
The same measure, in the same setting: the figure for `CN1CCC[C@H]1COC(=O)Nc1ccc(F)cc1-c1ccc(F)c(F)c1` [Example 171, (S)-(1-methylpyrrolidin-2-yl)methyl (3′,4′,5-trifluoro-[1,1′-biphenyl]-2-yl)carbamate] is 16.9 nM; for `CN1CCC[C@H]1COC(=O)Nc1ccc(F)cc1-c1cc(F)c(F)cc1F` [Example 173, (S)-(1-methylpyrrolidin-2-yl)methyl (2′,4′,5,5′-tetrafluoro-[1,1′-biphenyl]-2-yl)carbamate] it is 42.7 nM; for `CN1CCC[C@H]1COC(=O)Nc1ccc(F)cc1-c1cccc(Cl)c1` [Example 174, (S)-(1-methylpyrrolidin-2-yl)methyl(3′-chloro-5-fluoro-[1,1′-biphenyl]-2-yl)carbamate] it is 0.61 nM.
As for `CN1CCC[C@H]1COC(=O)Nc1ccc(F)cc1-c1ccc(Cl)cc1` [Example 175, (S)-(1-methylpyrrolidin-2-yl)methyl (4′-chloro-5-fluoro-[1,1′-biphenyl]-2-yl)carbamate], the inhibition constant Ki in assay [1] was 22.5 nM.
Regarding `CN1CCC[C@H]1COC(=O)Nc1ccc(F)cc1-c1ccc(Cl)cc1Cl` [Example 176, (S)-(1-methylpyrrolidin-2-yl)methyl (2′,4′-dichloro-5-fluoro-[1,1′-biphenyl]-2-yl)carbamate], the Ki in assay [1] is above 1000 nM.
Take `CN1CCC[C@H]1COC(=O)Nc1ccc(F)cc1-c1cccc(C#N)c1` [Example 178, (S)-(1-methylpyrrolidin-2-yl)methyl (3′-cyano-5-fluoro-[1,1′-biphenyl]-2-yl)carbamate]: the inhibitory constant (Ki) in assay [1] is above 1000 nM.
On to `CN1CCC[C@H]1COC(=O)Nc1ccc(F)cc1-c1cccc(O)c1` [Example 179, (S)-(1-methylpyrrolidin-2-yl)methyl(3′-hydroxy-5-fluoro-[1,1′-biphenyl]-2-yl)carbamate], for which the inhibition constant (Ki) in assay [1] came out at 241 nM.
Turning to `CN1CC[C@@H](COC(=O)Nc2cc(F)c(F)cc2-c2cccc(Cl)c2)C1` [Example 182, (R)-(1-methylpyrrolidin-3-yl)methyl (3′-chloro-4,5-difluoro-[1,1′-biphenyl]-2-yl)carbamate], the Ki in assay [1] is above 1000 nM.
In the case of `CN1CCCC1CCOC(=O)Nc1ccccc1-c1cccc(F)c1F` (centres unmarked) [Example 184, 2-(1-Methylpyrrolidin-2-yl)ethyl(2′,3′-difluoro-[1,1′-biphenyl]-2-yl)carbamate], the Ki in assay [1] was 63.5 nM.
For the molecule `CN1CCCC1CCOC(=O)Nc1ccccc1-c1c(F)cccc1F` (centres unmarked) [Example 185, 2-(1-Methylpyrrolidin-2-yl)ethyl(2′,6′-difluoro-[1,1′-biphenyl]-2-yl)carbamate], the inhibitory constant (Ki) in assay [1] was determined as 46.1 nM.
Same read-out and setting: to `CN1CCC[C@H]1COC(=O)Nc1ccccc1-c1cccc(F)c1F` [Example 189, (S)-(1-methylpyrrolidin-2-yl)methyl(2′,3′-difluoro-[1,1′-biphenyl]-2-yl)carbamate] belongs 65.6 nM; to `Cc1cc(C)cc(-c2ccccc2NC(=O)OC[C@@H]2CCN(C)C2)c1` [Example 191, (R)-(1-methylpyrrolidin-3-yl)-methyl (3′,5′-dimethyl-[1,1′-biphenyl]-2-yl)carbamate], 30.8 nM.
With `Cc1cc(C)cc(-c2cc(F)ccc2NC(=O)OC[C@@H]2CCN(C)C2)c1` [Example 193, (R)-(1-methylpyrrolidin-3-yl)methyl(5-fluoro-3′,5′-dimethyl-[1,1′-biphenyl]-2-yl)carbamate], in assay [1], the Ki is 45.8 nM.
Regarding `CN1CCC[C@H]1COC(=O)Nc1ccc(F)cc1-c1ccccc1` [Example 200, (S)-(1-methylpyrrolidin-2-yl)methyl(5-fluoro-[1,1′-biphenyl]-2-yl)carbamate], the inhibition constant (Ki) in assay [1] came to 2.03 nM.
As for `Cc1ccc(NC(=O)OC[C@@H]2CCCN2C)c(-c2ccccc2)c1` [Example 206, (S)-(1-methylpyrrolidin-2-yl)methyl(5-methyl-[1,1′-biphenyl]-2-yl)carbamate], in assay [1], the Ki was determined as 7.32 nM.
On the same count and under the same terms, to `Cc1cc(C)cc(-c2cc(F)ccc2NC(=O)OC[C@@H]2CCCN2C)c1` [Example 208, (S)-(1-methylpyrrolidin-2-yl)-methyl(5-fluoro-3′,5′-dimethyl-[1,1′-biphenyl]-2-yl)-carbamate] belongs 110 nM; to `CN1CCC[C@H]1COC(=O)Nc1ccc(F)cc1-c1ccc(C(C)(C)C)cc1` [Example 209, (S)-(1-methylpyrrolidin-2-yl)methyl (4′-(tert-butyl)-5-fluoro-[1,1′-biphenyl]-2-yl)carbamate], above 1000 nM; to `CN1CCC[C@H]1COC(=O)Nc1ccc(F)cc1-c1cc(F)cc(Cl)c1` [Example 210, (S)-(1-methylpyrrolidin-2-yl)methyl(3′-chloro-5,5′-difluoro-[1,1′-biphenyl]-2-yl)carbamate], 4.6 nM.
On to `CN1CCC[C@H]1COC(=O)Nc1ccc(F)cc1-c1ccc(Cl)c(F)c1` [Example 212, (S)-(1-methylpyrrolidin-2-yl)methyl(4′-chloro-3′,5-difluoro-[1,1′-biphenyl]-2-yl)carbamate], for which the inhibition constant (Ki) in assay [1] is above 1000 nM.
As to `CN1CCC[C@H]1COC(=O)Nc1ccc(F)cc1-c1cccc(N)c1` [Example 213, (S)-(1-methylpyrrolidin-2-yl)methyl (3′-amino-5-fluoro-[1,1′-biphenyl]-2-yl)carbamate], the inhibition constant (Ki) in assay [1] is 53 nM.
Take `CN1CCC[C@H]1COC(=O)Nc1ccc(F)cc1-c1cccc(C(F)(F)F)c1F` [Example 214, (S)-(1-methylpyrrolidin-2-yl)methyl(2′,5-difluoro-3′-(trifluoromethyl)-[1,1′-biphenyl]-2-yl)carbamate]: the inhibition constant Ki in assay [1] was above 1000 nM.
For `CN1CCC[C@H]1COC(=O)Nc1ccc(F)cc1-c1cc(Cl)cc(C(F)(F)F)c1` [Example 215, (S)-(1-methylpyrrolidin-2-yl)methyl(3′-chloro-5-fluoro-5′-(trifluoromethyl)-[1,1′-biphenyl]-2-yl)carbamate], the Ki in assay [1] is above 1000 nM.
Turning to `CN1CCC[C@H]1COC(=O)Nc1ccc(F)cc1-c1cc(O)cc(Cl)c1` [Example 216, (S)-(1-methylpyrrolidin-2-yl)methyl(3′-chloro-5-fluoro-5′-hydroxy-[1,1′-biphenyl]-2-yl)carbamate], the Ki in assay [1] was 60.1 nM.
Consider `COc1cc(Cl)cc(-c2cc(F)ccc2NC(=O)OC[C@@H]2CCCN2C)c1` [Example 217, (S)-(1-methylpyrrolidin-2-yl)methyl (3′-chloro-5-fluoro-5′-methoxy-[1,1′-biphenyl]-2-yl)carbamate], for which the inhibition constant (Ki) in assay [1] worked out at 223 nM.
Take `CN1CCC[C@H]1COC(=O)Nc1ccc(F)cc1-c1ccc(C(F)(F)F)cc1C(F)(F)F` [Example 218, (S)-(1-methylpyrrolidin-2-yl)methyl(5-fluoro-2′,4′-bis(trifluoromethyl)-[1,1′-biphenyl]-2-yl)carbamate]: the inhibition constant (Ki) in assay [1] is above 1000 nM.
Regarding `CCOc1cccc(-c2cc(F)ccc2NC(=O)OC[C@@H]2CCCN2C)c1` [Example 219, (S)-(1-methylpyrrolidin-2-yl)methyl(3′-ethoxy-5-fluoro-[1,1′-biphenyl]-2-yl)carbamate], in assay [1], the Ki was above 1000 nM.
As for `COc1ccc(-c2cc(F)ccc2NC(=O)OC[C@@H]2CCCN2C)cc1OC` [Example 220, (S)-(1-methylpyrrolidin-2-yl)methyl (5-fluoro-3′,4′-dimethoxy-[1,1′-biphenyl]-2-yl)carbamate], the Ki in assay [1] was above 1000 nM.
On the same count and under the same terms, to `COc1cc(OC)cc(-c2cc(F)ccc2NC(=O)OC[C@@H]2CCCN2C)c1` [Example 221, (S)-(1-methylpyrrolidin-2-yl)methyl(5-fluoro-3′,5′-dimethoxy-[1,1′-biphenyl]-2-yl)carbamate] belongs above 1000 nM; to `COc1ccc(NC(=O)OC[C@@H]2CCCN2C)c(-c2ccccc2)c1` [Example 222, (S)-(1-methylpyrrolidin-2-yl)methyl(5-methoxy-[1,1′-biphenyl]-2-yl)carbamate], 28.3 nM.
Same read-out and setting: the figure for `COc1ccc(NC(=O)OC[C@@H]2CCCN2C)c(-c2cccc(F)c2)c1` [Example 223, (S)-(1-methylpyrrolidin-2-yl)methyl(3′-fluoro-5-methoxy-[1,1′-biphenyl]-2-yl)carbamate] is 121 nM.
For `COc1ccc(NC(=O)OC[C@@H]2CCCN2C)c(-c2ccc(Cl)c(Cl)c2)c1` [Example 225, (S)-(1-methylpyrrolidin-2-yl)methyl (3′,4′-dichloro-5-methoxy-[1,1′-biphenyl]-2-yl)carbamate], the Ki in assay [1] is 53.6 nM.

These data come from US9828339B2, “Biphenyl derivatives and methods for preparing same” (DONG-A ST CO., LTD, priority 2013, dated 2017).
